From article PMC6934184, “Selective DNA-PKcs inhibition extends the therapeutic index of localized radiotherapy and chemotherapy” (The Journal of Clinical Investigation, 2019) come the findings set out here.

This assay has as its target T1, MAPK15 (ERK7) (Homo sapiens, UniProt Q8TD08).
T1 construct: purchased Thermo Fisher Scientific (Life Technologies) SelectScreen
As to the kind of experiment: SelectScreen LanthaScreen. The note with it: read-out: % displacement. It counts as binding. The essentials:
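NU5455 was profiled across the SelectScreen Broad panel of kinase activity and binding assays. Z'LYTE reactions such as CSF1R ran at apparent Km ATP, while the Adapta CAMK1 assay used ATP listed as 10. Values are given as percent.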
A general note: In TR-FRET formats the signal depends on donor and acceptor labels being close together.

T1 sequence (Q8TD08 whole entry): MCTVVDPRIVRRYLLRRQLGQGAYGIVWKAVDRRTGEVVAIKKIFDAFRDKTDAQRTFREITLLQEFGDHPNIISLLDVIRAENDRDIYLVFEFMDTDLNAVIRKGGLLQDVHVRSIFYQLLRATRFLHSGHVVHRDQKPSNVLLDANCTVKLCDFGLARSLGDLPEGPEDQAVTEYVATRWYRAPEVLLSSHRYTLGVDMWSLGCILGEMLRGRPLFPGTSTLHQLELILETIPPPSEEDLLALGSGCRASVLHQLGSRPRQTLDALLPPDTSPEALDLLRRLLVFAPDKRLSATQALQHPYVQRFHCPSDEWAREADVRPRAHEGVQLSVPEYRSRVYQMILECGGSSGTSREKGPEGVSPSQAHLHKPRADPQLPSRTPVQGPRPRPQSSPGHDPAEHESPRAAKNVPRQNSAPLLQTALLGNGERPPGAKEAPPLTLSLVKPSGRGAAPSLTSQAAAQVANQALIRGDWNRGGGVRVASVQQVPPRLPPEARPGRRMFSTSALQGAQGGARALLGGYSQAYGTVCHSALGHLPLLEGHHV

On to `CN(C(=O)CN1CCOCC1)c1ccc2sc3c(-c4cccc5c(=O)cc(N6CC7CCC(C6)O7)oc45)cccc3c2c1` [NU5455], for which the inhibition at 1 µM was 3.6%.
